Legend:
[1] = test system: various tumour cell lines; settings: various tumour cell lines in culture; cited from earlier work
H460 cells [2] = test: Sensitivity of transfected H460 cells to taxotere, cisplatin or camptothecin (colony count, Example 2); assay type: cell-based, human; settings: for apoptotic effect induced by the GAP (170-702) construction on addition of the product: added to culture medium of human tumour cells transfected with GAP(170-702), at concentrations without effect on cell viability; for apoptotic effect induced by the transfer of the Grb3-3 gene on addition of the product: added to culture medium of human tumour cells transfected with Grb3-3, at concentrations without effect on cell viability; for effect of the product alone on cell viability: concentrations used in the combination, human tumour cells
Source text: H460 cells transfected as described in Example 1 are subjected during selection by geneticin to a treatment for several days at different concentrations of taxotere, of cisplatin or of camptothecin. The H460/Neo^R cells and which are resistant to the chemotherapeutic agents are quantified as described in Example 1. The sensitivity to taxotere (A), to cisplatin (B) or to camptothecin (C) of the H460 cells transfected with pSV2-Neo (●), pSV2-Neo+pSV2-GAP[170-702] (▴) or pSV2-Neo+pSV2-Grb3-3 (▾) is depicted relative to cells transfected identically but in the absence of treatment with the chemotherapeutic agents. The results of an experiment which is representative of quantification of the number of colony after the different treatments mentioned are summarized in FIG. 2.

H460 cells [3] = test: Sensitivity of isolated H460 clones transfected with pcDNA3 or pcDNA3-p53WT to taxotere (Example 3); assay type: cell-based, human
Source text: H460 cells are transfected with cDNA coding for the wild-type p53 protein (p53^WT) placed in the plasmid pcDNA3 under the control of the CMV promoter. Plasmid pcDNA3 also contains the Neo gene placed under the control of the SV40 promoter. Cells transfected with pcDNA3 or pcDNA3-p53^WT are selected and isolated as described in Example 1. In the cells transfected with pcDNA3-p53^WT and which are resistant to geneticin, the presence of p53 is verified by western blotting using specific antibodies. FIG. 3 summarizes the results of a representative experiment in which are depicted, on the one hand the number of colonies obtained after pcDNA3 or pcDNA3-p53^WT transfection (A), and on the other hand the sensitivity of the clones isolated to a treatment with taxotere (B).

Compound | induction of apoptosis [1] | apoptotic effect induced by the GAP (170-702) construction on addition of the product (H460 cells [2]) | apoptotic effect induced by the transfer of the Grb3-3 gene on addition of the product (H460 cells [2]) | effect of the product alone on cell viability (H460 cells [2]) | effect of taxotere on H460 clones expressing wild-type p53 (H460 cells [3]; H460 clones resistant to the effect of p53, increasing doses of taxotere) | effect of taxotere on cells that do not express wild-type p53 (H460 cells [3]; same concentrations as those killing p53-expressing clones)
CC(=O)O[C@H]1C(=O)[C@@]2(C)[C@H]([C@H](OC(=O)c3ccccc3)[C@]3(O)C[C@H](OC(=O)[C@H](O)[C@@H](NC(=O)c4ccccc4)c4ccccc4)C(C)=C1C3(C)C)[C@]1(OC(C)=O)CO[C@@H]1C[C@@H]2O [Taxol, 4,10β-diacetoxy-2α-benzoyloxy-5β,20-epoxy-1β,7β-dihydroxy-9-oxo-11-taxen-13α-yl (2R,3S)-3′-benzoylamino-3′-phenyl-2′-hydroxypropionate] | induces apoptosis | – | – | – | – | –
CC[C@@]1(O)C(=O)OCc2c1cc1n(c2=O)Cc2cc3ccccc3nc2-1 [camptothecin] | – | very greatly increased | very greatly increased | without effect on cell viability | – | –
N.N.[Cl][Pt][Cl] [cisplatin] | – | very greatly increased | very greatly increased | without effect on cell viability | – | –
CC(=O)O[C@@]12CO[C@@H]1C[C@H](O)[C@@]1(C)C(=O)[C@H](O)C3=C(C)[C@@H](OC(=O)[C@H](O)[C@@H](NC(=O)OC(C)(C)C)c4ccccc4)C[C@@](O)([C@@H](OC(=O)c4ccccc4)[C@H]21)C3(C)C [taxotere, 4-acetoxy-2α-benzoyloxy-5β,20-epoxy-1β,7β,10β-trihydroxy-9-oxo-11-taxen-13α-yl (2R,3S)-3′-t-butoxycarbonylamino-3′-phenyl-2′-hydroxypropionate] | – | very greatly increased | very greatly increased | without effect on cell viability | cells die | completely ineffective

Source: patent publication US7884082B2, “Combined therapeutical treatment of hyperproliferative diseases” (Aventis Pharma SA, priority 1995, dated 2011)
